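Values below derive from 48-hour exposures of cells grown in 96-well plates, with endpoints linearly interpolated between the two concentrations bracketing the appropriate inhibition level. Here, GI50 denotes the concentration required for 50% inhibition of growth. Definition used: TGI = concentration required for complete inhibition of growth.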 A value given as a limit tells only on which side of the number the result lay.

Among the test systems are HCT-15 colon; MCF7 breast; SNB-19 CNS; BT-549 breast; SN12C renal; NCI/ADR-RES ovarian; OVCAR-5 ovarian; 786-0 renal.
Common to all, as to assay: NCI anticancer screen, dose series, 48 h

With `CO/N=C(\COc1ccc2c(c1)[nH]c1ccccc12)c1ccc(OC)cc1`, the GI50 was greater than 100 µM in the test with HCT-15 colon; 49.8 µM in the test with MCF7 breast; 24.4 µM with SNB-19 CNS; greater than 100 µM in the test on BT-549 breast; 57.9 µM with SN12C renal; greater than 100 µM in the test on NCI/ADR-RES ovarian. Further, the GI50 with OVCAR-5 ovarian was 61 µM; with 786-0 renal, 7.18 µM. Moreover, the TGI in the test on HCT-15 colon, in the test with MCF7 breast, with SNB-19 CNS, in the test on BT-549 breast, with SN12C renal and with NCI/ADR-RES ovarian was greater than 100 µM throughout. Also, the TGI with OVCAR-5 ovarian and in the test on 786-0 renal was greater than 100 µM in each case.
In the case of `CCSCCCSCCSCC`, the TGI in the test with HCT-15 colon, in the test with MCF7 breast, in the test on SNB-19 CNS, in the test on BT-549 breast, in the test with SN12C renal and with OVCAR-5 ovarian was greater than 100 µM each time. The compound further registered a TGI in the test with 786-0 renal greater than 100 µM.
With `CCSC1=NC2C(N(CC)C(=O)N2CC)N1/N=C/C=C/c1ccccc1[N+](=O)[O-]` (stereo unspecified), the GI50 is 0.204 µM in the test with HCT-15 colon; 0.0415 µM in the test on MCF7 breast; 0.372 µM in the test on SNB-19 CNS; 0.284 µM in the test with BT-549 breast; 0.401 µM in the test with SN12C renal; 0.209 µM in the test with NCI/ADR-RES ovarian. Besides, the GI50 in the test on OVCAR-5 ovarian is 0.426 µM; in the test on 786-0 renal it was 0.405 µM. For the same compound, the TGI in the test on HCT-15 colon is greater than 100 µM; in the test on MCF7 breast, greater than 100 µM; with SNB-19 CNS it was greater than 100 µM; in the test with BT-549 breast it was 4.23 µM; in the test with SN12C renal, greater than 100 µM; with NCI/ADR-RES ovarian, greater than 100 µM. In addition, the TGI with OVCAR-5 ovarian and in the test with 786-0 renal was greater than 100 µM throughout.
With `O=S(=O)(/N=c1\scc(-c2ccccc2)n1-c1ccccc1)c1ccc(N2N=C3c4ccccc4CC3C2c2ccc(Cl)cc2)cc1` (stereo unspecified), the GI50 in the test with HCT-15 colon was 47.7 µM; in the test with MCF7 breast, greater than 100 µM; in the test on SNB-19 CNS, 78.8 µM; with BT-549 breast, 41.4 µM; with SN12C renal, 50.8 µM; in the test with NCI/ADR-RES ovarian it was 51.5 µM. The values for the GI50 with OVCAR-5 ovarian and in the test with 786-0 renal were 38.1 µM and 32.7 µM, respectively. Also, the TGI in the test on HCT-15 colon, in the test with MCF7 breast, in the test on SNB-19 CNS, in the test with BT-549 breast, with SN12C renal and with NCI/ADR-RES ovarian was greater than 100 µM in each case. Also, the TGI with OVCAR-5 ovarian and with 786-0 renal was greater than 100 µM throughout.
For the compound `O=C(NCC1CC1)c1ccc(-c2cccc(C(=O)NC3CC3)c2)cc1`, the GI50 with HCT-15 colon, in the test on MCF7 breast, in the test with SNB-19 CNS, with BT-549 breast, with SN12C renal and with NCI/ADR-RES ovarian was greater than 25 µM each time. For the same compound, the GI50 with OVCAR-5 ovarian and in the test on 786-0 renal was greater than 25 µM throughout. Also, the TGI with HCT-15 colon, with MCF7 breast, in the test with SNB-19 CNS, in the test on BT-549 breast, with SN12C renal and with NCI/ADR-RES ovarian was greater than 25 µM in each case. The TGI with OVCAR-5 ovarian and in the test on 786-0 renal was greater than 25 µM each time.
For the compound `COc1ccc(C2=Nn3c(nnc3-c3cc(Cl)cc(Cl)c3Cl)SC2)cc1`, the GI50 in the test with HCT-15 colon was 0.52 µM; with MCF7 breast it was 0.326 µM; in the test with SNB-19 CNS it was 0.402 µM; in the test with BT-549 breast, 0.661 µM; in the test on SN12C renal it was 1.54 µM; in the test with NCI/ADR-RES ovarian, 0.248 µM. Moreover, the GI50 is 1.42 µM with OVCAR-5 ovarian and 0.411 µM in the test on 786-0 renal. In addition, the TGI with HCT-15 colon was greater than 100 µM; in the test with MCF7 breast it was greater than 100 µM; in the test with SNB-19 CNS, 55.1 µM; with BT-549 breast, greater than 21.9 µM; in the test on SN12C renal, greater than 100 µM; in the test with NCI/ADR-RES ovarian it was 1.26 µM. In addition, the TGI with OVCAR-5 ovarian was greater than 100 µM.
Turning to `CN(C)CCNC(=O)Cn1ccc(=O)c2cc([N+](=O)[O-])ccc21`, the TGI in the test with HCT-15 colon, with MCF7 breast, in the test on SNB-19 CNS, in the test with SN12C renal, in the test on NCI/ADR-RES ovarian and with OVCAR-5 ovarian was greater than 100 µM each time. In the test on 786-0 renal, this compound came in with a TGI greater than 100 µM.
Consider `O=C1C=CC(=O)c2c1ccc1c3ccccc3n(Cc3ccc([N+](=O)[O-])cc3)c21`, for which the TGI in the test on HCT-15 colon, in the test on MCF7 breast, in the test on SNB-19 CNS, in the test with BT-549 breast, in the test on SN12C renal and in the test on NCI/ADR-RES ovarian was greater than 100 µM throughout. This compound also registered a TGI in the test with 786-0 renal greater than 100 µM.
On to `COc1cccc(-c2nc3cc(NC(=O)c4ccc(Cl)c(C#N)c4)ccc3o2)c1`, for which the GI50 in the test on HCT-15 colon was greater than 100 µM; with SNB-19 CNS it was 3.18 µM; in the test on SN12C renal, 3.1 µM; in the test with NCI/ADR-RES ovarian, 1.42 µM; in the test with OVCAR-5 ovarian it was 3.05 µM; in the test with 786-0 renal it was 1.74 µM. Further, the TGI is greater than 100 µM with HCT-15 colon; greater than 100 µM in the test on SNB-19 CNS; greater than 100 µM in the test on SN12C renal; 4.31 µM in the test on NCI/ADR-RES ovarian; greater than 100 µM in the test on OVCAR-5 ovarian; 3.33 µM in the test on 786-0 renal.
For the compound `COc1ccc2nccc(C3=CCC4CCN(C(=O)c5ccccc5)C3C4)c2c1` (stereo unspecified), the TGI with HCT-15 colon, in the test on SNB-19 CNS, in the test on SN12C renal and in the test with 786-0 renal was greater than 100 µM in each case.
Consider `c1ccc(C2ONC3=NCCN32)cc1` (stereo unspecified), for which the GI50 was 16.9 µM in the test with HCT-15 colon; 55.9 µM in the test with MCF7 breast; greater than 100 µM in the test on SNB-19 CNS; 79.6 µM in the test with BT-549 breast; 25.8 µM with NCI/ADR-RES ovarian; 67.9 µM in the test with OVCAR-5 ovarian. In the test with 786-0 renal, the GI50 was 13.3 µM. Also, the TGI is greater than 100 µM with HCT-15 colon; greater than 100 µM in the test on MCF7 breast; greater than 100 µM in the test on SNB-19 CNS; greater than 100 µM in the test on BT-549 breast; 88.6 µM in the test with NCI/ADR-RES ovarian; greater than 100 µM in the test with OVCAR-5 ovarian. The compound also showed a TGI with 786-0 renal of 68 µM.
On to `C/C(CC(O)(C(F)(F)F)C(F)(F)F)=N\NC(N)=O`, for which the TGI in the test with HCT-15 colon, in the test with MCF7 breast, in the test on SNB-19 CNS, in the test on SN12C renal, with NCI/ADR-RES ovarian and in the test on 786-0 renal was greater than 10 µM throughout.

Source of the values: PubChem BioAssay (NCI).
